For series [1] the following is noted: human gut metagenome, 24 h, 2 µM.
For series [2] the following is noted: human gut metagenome, 24 h, 2 µM. The source holds these as a separate data set.
For series [3] the following is noted: human gut metagenome, 24 h, 2 µM. The source holds these as a separate data set.
Series [4] can be described thus: The drug is tested on WLS-086 corresponding to human gut metagenome with ENA study accession number: PRJEB37062 and ENA sample accession number: ERS12561752 for biotransformation under anaerobic condition. The drug concentrations were measured over 9 timepoints collected between 0 and 24 hours of incubation by liquid-chromatography-coupled mass spectrometry (LC–MS). The note with it: 2 µM.

The conditions of series [5]: human gut metagenome, 24 h, 2 µM. The source holds these as a separate data set.
For series [6] the following is noted: human gut metagenome, 24 h, 2 µM. The source holds these as a separate data set.
The conditions of series [7]: human gut metagenome, 24 h, 2 µM. The source holds these as a separate data set.
The conditions of series [8]: human gut metagenome, 24 h, 2 µM. The source holds these as a separate data set.
The nature of series [9]: The drug is tested on WLS-073 corresponding to human gut metagenome with ENA study accession number: PRJEB37062 and ENA sample accession number: ERS12561749 for biotransformation under anaerobic condition. The drug concentrations were measured over 9 timepoints collected between 0 and 24 hours of incubation by liquid-chromatography-coupled mass spectrometry (LC–MS). The settings on record: 2 µM.

The nature of series [10]: The drug is tested on WLS-350 corresponding to human gut metagenome with ENA study accession number: PRJEB37062 and ENA sample accession number: ERS12561789 for biotransformation under anaerobic condition. The drug concentrations were measured over 9 timepoints collected between 0 and 24 hours of incubation by liquid-chromatography-coupled mass spectrometry (LC–MS). The settings on record: 2 µM.

The nature of series [11]: The drug is tested on Z-028 corresponding to mouse gut metagenome with ENA study accession number: PRJEB37062 and ENA sample accession number: ERS12561827 for biotransformation under anaerobic condition. The drug concentrations were measured over 9 timepoints collected between 0 and 24 hours of incubation by liquid-chromatography-coupled mass spectrometry (LC–MS). The settings on record: 2 µM.

A short description of series [12]: The drug is tested on Z-005 corresponding to metagenome with ENA study accession number: PRJEB37062 and ENA sample accession number: ERS12561805 for biotransformation under anaerobic condition. The drug concentrations were measured over 9 timepoints collected between 0 and 24 hours of incubation by liquid-chromatography-coupled mass spectrometry (LC–MS). The note with it: 2 µM.

The record followed here is ChEMBL document CHEMBL5724914, “Linking interpersonal differences in gut microbiota composition and drug biotransformation activity” (2024).
Note: call rule not given here.

`N#Cc1ccc2c(c1)N(CCCN1CCC(O)CC1)c1ccccc1S2` [PERICIAZINE]: the “Bacterial Biotransformation” value in series [1] is reported as “Compound NOT metabolized”; in series [2], “Compound NOT metabolized”; in series [3] it was “Compound NOT metabolized”; in series [4] it was “Compound metabolized”; in series [5] it was “Compound NOT metabolized”; in [6] it was “Compound metabolized”. The “Bacterial Biotransformation” value in series [7] is “Compound metabolized”; in series [8] it was “Compound NOT metabolized”; in [9], “Compound NOT metabolized”; in series [10] it was “Compound NOT metabolized”.

In the case of `COCCCC/C(=N\OCCN)c1ccc(C(F)(F)F)cc1.O=C(O)/C=C\C(=O)O` [FLUVOXAMINE MALEATE], the “Bacterial Biotransformation” value in [1] is given as “Compound metabolized”; in series [2], “Compound NOT metabolized”; in [3] it was “Compound metabolized”; in [4], “Compound NOT metabolized”; in series [5] it was “Compound NOT metabolized”; in [6] it was “Compound NOT metabolized”. Also, the “Bacterial Biotransformation” value in series [7] is recorded as “Compound metabolized”; in series [8] it was “Compound NOT metabolized”; in [9], “Compound NOT metabolized”; in series [10], “Compound NOT metabolized”.

`O=C([O-])C[C@H](O)C[C@H](O)/C=C/c1c(C2CC2)nc2ccccc2c1-c1ccc(F)cc1.O=C([O-])C[C@H](O)C[C@H](O)/C=C/c1c(C2CC2)nc2ccccc2c1-c1ccc(F)cc1.[Ca+2]` [PITAVASTATIN CALCIUM]: the “Bacterial Biotransformation” value in [1] is on record as “Compound NOT metabolized”; in [2], “Compound metabolized”; in series [3], “Compound NOT metabolized”; in [4] it was “Compound metabolized”; in [5], “Compound NOT metabolized”; in series [6], “Compound metabolized”. The “Bacterial Biotransformation” value in series [7] is listed as “Compound metabolized”; in [8], “Compound metabolized”; in series [9] it was “Compound metabolized”; in [10], “Compound NOT metabolized”.

For `CC#CCn1c(N2CCC[C@@H](N)C2)nc2c1c(=O)n(Cc1nc(C)c3ccccc3n1)c(=O)n2C` [LINAGLIPTIN], the “Bacterial Biotransformation” value in [1], in series [2], in [3], in series [4], in series [5] and in series [6] was “Compound NOT metabolized” each time. Further, the “Bacterial Biotransformation” value in series [7] is recorded as “Compound NOT metabolized”; in series [8], “Compound NOT metabolized”; in [9], “Compound metabolized”; in [10], “Compound NOT metabolized”.

In the case of `CN1CCN(C2=Nc3ccccc3Oc3ccc(Cl)cc32)CC1.O=C(O)CCC(=O)O` [LOXAPINE SUCCINATE], the “Bacterial Biotransformation” value in [1], in [2], in series [3], in [4], in series [5] and in [6] was “Compound NOT metabolized” in each case. The “Bacterial Biotransformation” value in series [7], in series [8], in [9] and in [10] was “Compound NOT metabolized” each time.

With `CN(C)CCc1c[nH]c2ccc(CS(=O)(=O)N3CCCC3)cc12` [ALMOTRIPTAN], the “Bacterial Biotransformation” value in series [1] is recorded as “Compound NOT metabolized”; in series [2] it was “Compound NOT metabolized”; in [3], “Compound NOT metabolized”; in series [4] it was “Compound metabolized”; in series [5] it was “Compound NOT metabolized”; in series [6] it was “Compound metabolized”. The “Bacterial Biotransformation” value in [7], in series [8], in series [9] and in series [10] was “Compound NOT metabolized” in each case.

As for `CCOC(=O)C1=C(C)NC(C)=C(C(=O)OC)C1c1cccc([N+](=O)[O-])c1` (stereo unspecified) [NITRENDIPINE], the “Bacterial Biotransformation” value in series [1], in series [2], in series [3], in [4], in series [5] and in [6] was “Compound metabolized” in each case. Besides, the “Bacterial Biotransformation” value in [7], in series [8], in [9] and in [10] was “Compound metabolized” in each case.

Take `Cc1nc(Nc2ncc(C(=O)Nc3c(C)cccc3Cl)s2)cc(N2CCN(CCO)CC2)n1` [DASATINIB ANHYDROUS]: the “Bacterial Biotransformation” value in series [1], in series [2], in [3], in series [4], in [5] and in series [6] was “Compound metabolized” in each case. In addition, the “Bacterial Biotransformation” value in [7] is reported as “Compound metabolized”; in series [8] it was “Compound metabolized”; in series [9] it was “Compound metabolized”; in series [10], “Compound NOT metabolized”.

For the molecule `CC(=O)Oc1ccc(C(c2ccc(OC(C)=O)cc2)c2ccccn2)cc1` [BISACODYL], the “Bacterial Biotransformation” value in [1], in series [2], in series [3], in series [4], in series [5] and in series [6] was “Compound metabolized” throughout. In addition, the “Bacterial Biotransformation” value in [7], in series [8], in series [9] and in series [10] was “Compound metabolized” each time.

Turning to `CNCC[C@H](Oc1cccc2ccccc12)c1cccs1` [DULOXETINE], the “Bacterial Biotransformation” value in [1], in series [2], in [3], in [4], in series [5] and in [6] was “Compound NOT metabolized” in each case. For the same molecule, the “Bacterial Biotransformation” value in [7], in series [8], in series [9] and in series [10] was “Compound NOT metabolized” in each case.

`CCCCC(=O)O[C@]1(C(=O)CO)[C@@H](C)C[C@H]2[C@@H]3CCC4=CC(=O)C=C[C@]4(C)[C@@]3(F)[C@@H](O)C[C@@]21C` [BETAMETHASONE VALERATE]: the “Bacterial Biotransformation” value in series [1] is “Compound NOT metabolized”; in series [2] it was “Compound metabolized”; in series [3] it was “Compound NOT metabolized”; in series [4], “Compound metabolized”; in [5], “Compound NOT metabolized”; in series [6] it was “Compound NOT metabolized”. Moreover, the “Bacterial Biotransformation” value in series [7] is given as “Compound metabolized”; in series [8], “Compound NOT metabolized”; in [9], “Compound NOT metabolized”; in [10], “Compound NOT metabolized”.

As to `CNNCc1ccc(C(=O)NC(C)C)cc1` [PROCARBAZINE], the “Bacterial Biotransformation” value is given as “Compound NOT metabolized” in [1]; “Compound metabolized” in series [3]; “Compound metabolized” in series [11]; “Compound metabolized” in [4]; “Compound NOT metabolized” in [5]; “Compound metabolized” in [6]. Besides, the “Bacterial Biotransformation” value was “Compound NOT metabolized” in series [7]; “Compound metabolized” in series [8]; “Compound NOT metabolized” in series [12]; “Compound NOT metabolized” in series [9]; “Compound NOT metabolized” in [10].
